For 71 compounds, EC50, IC50 and outcome results are on record in PubChem BioAssay AID179 (DTP/NCI, 2004).

The test system of this test is CEM cells HIV-1 protection, formazan growth assay. In words: NCI AIDS Antiviral Assay. The note with it: for IC50: measured here: growth of uninfected CEM cells. In a few lines: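 Five concentrations of each compound were applied to infected and uninfected human CEM cells. Protection from HIV-1 was judged from growth measured with a soluble formazan assay.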

Calls of active or inactive are those of the source.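 The calls were made as follows: active = compounds giving half or more protection of infected cells from virus-caused growth loss, again on retest; inactive = the rest.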

Broadly, the EC50 is the concentration needed to bring the measured effect to its halfway point. As a reminder, the IC50 is the concentration needed to halve the response being measured. Read a low IC50 as greater potency. For `CO[C@@H]1[C@@H](OC2OC(C)C(OC3CC(C)(O)C(OC(=O)CC(C)C)C(C)O3)C(N(C)C)C2O)[C@@H](CC=O)C[C@@H](C)C(=O)/C=C/C2O[C@H]2C[C@@H](C)OC(=O)C[C@H]1OC(C)=O` (stereo not given in full), the EC50 was > 148 µM and the concentration for half-maximal inhibition (IC50) came to 7.76 µM.
With `CC(C)(C)C(=O)[O-].N.N.N.N.N.[Co+3].[O-][Cl+3]([O-])([O-])[O-]`, the result was inactive.
Take `CCOC(=O)[C@]12C3C=CC(C3)C1C(=O)C1OC12` (stereo not given in full): the EC50 is > 562 µM and the half-maximal inhibitory concentration (IC50) was > 562 µM.
As for `CC1(C)OCC(CO)(Nc2nc(N3CC3)nc(N3CC3)n2)CO1`, the EC50 is > 200 µM and the IC50 is 0.741 µM.
On to `O=C(Nc1ccc(Cl)c(Cl)c1)NN1CCCCCC1`, for which the result was inactive.
With `[O-][n+]1c2ccccc2cc2c1c1ccccc1n2O`, the EC50 is > 20.9 µM and the IC50 is > 20.9 µM.
With `CCCc1cc(=O)oc2c3c(cc(OC(C)C)c12)O[C@H](C)[C@H](C)C3=O`, the EC50 is > 200 µM and the IC50 is 30.2 µM.
Consider `COc1ccc(N2C(=O)C3CC4=CC(=O)C[C@H]4[C@H]32)cc1` (stereo not given in full), for which the EC50 is > 200 µM and the IC50 worked out at 151 µM.
For the compound `O=[N+]([O-])c1ccc(C2SCc3nc4ccccc4n32)cc1` (stereo not given), the EC50 is > 55 µM and the 50% inhibitory concentration (IC50) is 33.1 µM.
On to `O=C(Nc1ccn(CCO)c(=O)n1)c1ccccc1`, for which the EC50 is > 692 µM and the IC50 was > 692 µM.
As to `S=C1SSC(=S)SS1`, the EC50 was > 33.1 µM and the 50% inhibitory concentration (IC50) was > 33.1 µM.
As for `CC1CCCC(C(O)CC2CC(=O)NC(=O)C2)C1O` (stereo not given), the EC50 is > 200 µM and the 50% inhibitory concentration (IC50) is > 200 µM.
For `COC(=O)C(=O)C(C(=O)C(=O)Nc1ccc(OC)cc1[N+](=O)[O-])c1nc2ccc([N+](=O)[O-])cc2[nH]c1=O` (stereo not given), the EC50 was > 182 µM and the IC50 turned out to be 170 µM.
Regarding `CC1Oc2cc3c(-c4c(O)cc(O)c5c(O)c6c(cc45)OC(C)C(C)C6=O)c(O)cc(O)c3c(O)c2C(=O)C1C` (stereo not given), the EC50 is > 34.7 µM and the half-inhibitory concentration (IC50) came to 0.38 µM.
For `Cc1nc(-n2nc(-c3ccccc3)cc2-c2ccccc2)sc1C(/C=C/c1ccc([N+](=O)[O-])cc1)=N/NC(=O)c1ccncc1`, the EC50 was > 42.7 µM and the half-inhibitory concentration (IC50) was 37.2 µM.
Consider `CC(=O)O[C@]1(C(C)=O)CC[C@H]2[C@@H]3C=C(Cl)C4=CC(=O)CC[C@]4(C)[C@H]3CC[C@@]21C`, for which the EC50 is > 200 µM and the IC50 is > 200 µM.
Regarding `COc1ccc(NC(=S)Nc2cccc(C)n2)cc1`, the EC50 was > 200 µM and the IC50 was > 200 µM.
As to `O=C(Nc1cc2c(oc1=O)CCCCCC2)c1ccccc1`, the EC50 was > 200 µM and the IC50 is > 200 µM.
Turning to `O=S(=O)(O)c1ccc2c(N=Nc3cccc4ccccc34)c(O)c(S(=O)(=O)O)cc2c1`, the result was inactive.
For the compound `CCCN(CCC)CC(=O)Nc1cccc(Cl)c1C`, the EC50 is > 200 µM and the IC50 was found to be 63.1 µM.
As to `CC(C)C1=C[C@H](c2ccccc2)c2ccccc2C1C(C#N)(C#N)C(C)C` (stereo not given in full), the EC50 is > 1.48 µM and the half-maximal inhibitory concentration (IC50) was > 1.48 µM.
With `CC(C)OP(=O)(OC(C)C)C(=Nc1ccc(N=C(NNc2ccc([N+](=O)[O-])cc2)P(=O)(OC(C)C)OC(C)C)cc1)NNc1ccc([N+](=O)[O-])cc1`, the EC50 is > 3.55 µM and the IC50 was > 3.55 µM.
For `COc1cc(C)c2c(=O)c3c(oc2c1)C(=O)c1c(OC)c(OC)cc(OC)c1C3=O`, the outcome was inactive.
Regarding `CC1=CN2C(c3ccc(Cl)cc3)=NON(c3ccc(C)cn3)C2C=C1` (stereo not given), the EC50 is > 10.2 µM and the concentration for half-maximal inhibition (IC50) is > 10.2 µM.
As to `CCOP(=S)(NN=C1CCCCC1)OCC`, the EC50 is > 200 µM and the IC50 was found to be 112 µM.
The matching figures for `O=c1c2ccc(Cl)cc2nc2nc(-c3ccccc3)c3cc(Cl)ccc3n12`: > 200 µM and > 100 µM.
For the compound `Nc1nc(NCc2ccccc2)cc(NCc2ccccc2)n1`, the EC50 was > 20 µM and the IC50 came to 2.75 µM.
Regarding `OC1(c2ccccc2)c2ccccc2Oc2ccccc21`, the EC50 is > 200 µM and the IC50 came to 17.4 µM.
In the case of `NC1C2(CCCCCC2)NC(=O)C12CCCCCC2` (stereo not given), the result was inactive.
Turning to `O=C1OC(=O)c2c1cc1cc3c(cc1c2-c1ccc2c(c1)OCO2)OCO3`, the outcome was inactive.
Regarding `NNC(=O)C(=O)N/N=C(\CCC(=O)Nc1ccc(Cl)cc1)Cc1nc2ccccc2s1`, the EC50 is > 77.6 µM and the IC50 was found to be 14.5 µM.
On to `CCOC(=O)/C(=C(\C)N)C1CC(=O)NC1=O` (stereo not given), for which the EC50 was > 200 µM and the 50% inhibitory concentration (IC50) was found to be 107 µM.
With `O=C1CCCCCN1c1ccccn1`, the EC50 is > 1320 µM and the IC50 was > 1320 µM.
Take `CN1CCN(C)C12C=c1ccccc1=CC21CC1`: the outcome was inactive.
With `CNC(=O)CN(CC(N)=O)C(N)=O`, the EC50 was > 191 µM and the half-inhibitory concentration (IC50) is > 191 µM.
For `Oc1cccc2c1NC1=C(CCC/C1=C\c1ccccc1)C2`, the EC50 is > 9.33 µM and the half-inhibitory concentration (IC50) was > 9.33 µM.
Turning to `CN1C(=O)NC(C=O)(CCc2ccccc2)C1=O` (stereo not given), the outcome was inactive.
On to `OC1CCCC1C(O)(C(F)(F)F)C(F)(F)F` (stereo not given), for which the outcome was inactive.
For `COc1ccc(/C=N/NC(=O)CSc2nc(-c3ccccc3)c(-c3ccccc3)[nH]2)cc1OC`, the EC50 is > 55 µM and the 50% inhibitory concentration (IC50) is 31.6 µM.
The matching figures for `CCOC(=O)N1CCN(Cc2cc(=O)n3cc(C)ccc3n2)CC1`: > 200 µM and > 200 µM.
Take `CCN(CC)C(=S)N/N=C/c1cc([N+](=O)[O-])ccc1O`: the EC50 was > 200 µM and the IC50 was 3.63 µM.
With `Cc1cc2c(C(C)C)c(O)c(O)c(C=Nc3ccccc3O)c2c(O)c1-c1c(C)cc2c(C(C)C)c(O)c(O)c(C=Nc3ccccc3O)c2c1O`, the EC50 is > 200 µM and the IC50 worked out at 3.24 µM.
As to `CC(C)CCCC(C)[C@H]1CC[C@H]2[C@@H]3CC[C@H]4C[C@@H](CCC=C(c5cc(Cl)c(O)c(C(=O)O)c5)c5cc(Cl)c(O)c(C(=O)O)c5)CC[C@]4(C)[C@H]3CC[C@]12C` (stereo not given in full), the EC50 is 60.3 µM and the IC50 is 129 µM.
For `NC(=O)COC(=O)c1c(Cl)nc2sccn12`, the EC50 is > 347 µM and the IC50 is > 347 µM.
Consider `O=[N+]([O-])c1cc[n+]([O-])cc1`, for which the EC50 was > 1410 µM and the half-maximal inhibitory concentration (IC50) amounted to 8.91 µM.
Take `Cc1ccc2c(c1C)CC1(Cc3ccc(C)c(C)c3C1=O)C2=O` (stereo not given): the EC50 is > 100 µM and the IC50 was > 100 µM.
Take `COC(=O)C([C@H](NC1(c2ccccc2)c2ccccc2-c2ccccc21)C(=O)OC)N(NC(=O)OCc1ccccc1)C(=O)OCc1ccccc1` (mixture of isomers): the EC50 was > 200 µM and the half-maximal inhibitory concentration (IC50) is 110 µM.
Consider `O=c1[nH]c(-c2ccc(-c3nc4cc([N+](=O)[O-])ccc4c(=O)[nH]3)cc2)nc2cc([N+](=O)[O-])ccc12`, for which the EC50 is > 7.94 µM and the IC50 was > 7.94 µM.
For `N#Cc1c(N=C2CCCCC2)c(C(=O)Nc2ccccc2)n2c1CCCC2`, the EC50 was > 50.1 µM and the IC50 was > 50.1 µM.
Turning to `CCOC(=O)c1ccc(CSc2ccccc2C(=O)O)cc1`, the EC50 is > 16.6 µM and the 50% inhibitory concentration (IC50) is > 16.6 µM.
As to `COC(=O)c1cccc2cccc(C(=O)Nc3ccc(Cl)cc3)c12`, the EC50 is > 11.2 µM and the half-inhibitory concentration (IC50) is > 11.2 µM.
Regarding `COC(=O)c1ccc(CSc2ccccc2C(=O)O)cc1`, the EC50 is > 603 µM and the 50% inhibitory concentration (IC50) was 427 µM.
As for `CCCCCCCCCCCCCCCCNc1ccn(C2CC(OP(=O)(O)OCC3CCC(n4ccc(N)nc4=O)O3)C(CO)O2)c(=O)n1` (stereo not given), the concentration giving a half-maximal response (EC50) was 1 µM and the IC50 came out at 97.7 µM.
Turning to `O=c1[nH]c(=O)n(COCCO)c2ccsc12`, the EC50 is > 200 µM and the IC50 is > 200 µM.
With `O=S(=O)(Nc1ccccc1)c1ccc(-c2c3nc(c(-c4ccc(S(=O)(=O)Nc5ccccc5)cc4)c4ccc([nH]4)c(-c4ccc(S(=O)(=O)Nc5ccccc5)cc4)c4nc(c(-c5ccc(S(=O)(=O)Nc6ccccc6)cc5)c5ccc2[nH]5)C=C4)C=C3)cc1`, the EC50 is > 100 µM and the concentration for half-maximal inhibition (IC50) is > 100 µM.
Consider `CCOP(=O)(OCC)/C(C#N)=C/c1ccccc1O`, for which the EC50 was > 891 µM and the IC50 is > 891 µM.
With `O=C1/C(=C/c2ccc(Cl)c(Cl)c2)CCC/C1=C\c1ccc(Cl)c(Cl)c1`, the EC50 was > 50.1 µM and the IC50 came to 2.95 µM.
In the same order, the values of `Cc1cccc(NC(=S)Nc2ccc(Cl)cc2)n1` are > 200 µM and > 200 µM.
As for `Cc1ccc2nc3c(C)cc(=O)cc-3sc2c1`, the EC50 is > 77.6 µM and the IC50 stood at 50.1 µM.
The matching figures for `Cc1cn(C2CCN(c3ccccc3)O2)c(=O)[nH]c1=O` (stereo not given): > 200 µM and > 200 µM.
For the compound `O=c1cnn(C2OC(CO)C(O)C2O)c(=S)[nH]1` (stereo not given), the EC50 is > 2 µM and the IC50 came to 0.182 µM.
In the case of `CN/N=C(/c1nc2ccc([N+](=O)[O-])cc2[nH]c1=O)C(O)c1ccc(C(O)/C(=N\NC)c2nc3ccc([N+](=O)[O-])cc3[nH]c2=O)cc1` (stereo not given), the EC50 is > 107 µM and the IC50 stood at 77.6 µM.
In the same order, the values of `C=CCOC1(CC=C)C(=O)OC2C(O)COC21O` (stereo not given) are > 200 µM and > 200 µM.
Regarding `COc1ccccc1NC(=O)CC(=O)n1nc(C)c(N=Nc2ccccc2F)c1C`, the result was inactive.
Take `COc1cccc(/C=C(\C#N)C(=O)c2ccccc2)c1`: the EC50 is > 97.7 µM and the IC50 was > 97.7 µM.
Consider `C=CCC1(c2ccccc2)Oc2cccnc2-n2cccc2C1=O` (stereo not given), for which the EC50 is > 200 µM and the IC50 was 8.91 µM.
On to `CN(C)C(C(N)=O)c1ccccc1` (stereo not given), for which the EC50 is > 200 µM and the IC50 is > 200 µM.
In the case of `COc1ccc2c(c1)N(S(=O)(=O)c1ccc(C)cc1)CC1=C2CCP1(C)=O` (stereo not given), the result was inactive.
As for `C1CSCCSCCSCCSC1`, the EC50 was > 38.9 µM and the IC50 was > 38.9 µM.
As to `CC(=O)CC(=O)Nc1ccccc1[N+](=O)[O-]`, the result was inactive.
As to `O=C(/C=C/c1ccccc1O)c1ccccc1`, the EC50 was > 60.3 µM and the half-maximal inhibitory concentration (IC50) is > 60.3 µM.
